The species named for test [1] is Homo sapiens. The test is described as follows: Selectivity index, ratio of IC50 for human erythrocytes Ache to IC50 for human serum BuChe.
The target of test [2] is T1, Amine oxidase [flavin-containing] A (Homo sapiens, UniProt P21397).
T1 sequence (P21397 whole entry): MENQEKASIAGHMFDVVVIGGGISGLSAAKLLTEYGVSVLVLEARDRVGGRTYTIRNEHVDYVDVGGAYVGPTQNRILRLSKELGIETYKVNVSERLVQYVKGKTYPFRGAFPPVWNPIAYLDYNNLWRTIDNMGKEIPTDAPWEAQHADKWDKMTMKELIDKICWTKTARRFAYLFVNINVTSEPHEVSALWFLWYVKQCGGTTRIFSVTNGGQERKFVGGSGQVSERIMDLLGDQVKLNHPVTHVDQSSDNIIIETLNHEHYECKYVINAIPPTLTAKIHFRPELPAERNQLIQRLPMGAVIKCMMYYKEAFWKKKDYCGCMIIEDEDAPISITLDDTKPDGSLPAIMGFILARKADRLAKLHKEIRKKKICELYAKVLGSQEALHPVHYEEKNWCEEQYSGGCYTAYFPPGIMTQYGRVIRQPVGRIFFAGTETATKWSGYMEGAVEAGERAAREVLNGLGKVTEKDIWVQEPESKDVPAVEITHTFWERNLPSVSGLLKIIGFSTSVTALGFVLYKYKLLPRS
The test is described as follows: Inhibition of recombinant human MAO-A.

Test [3] is filed under the species Homo sapiens. Nature of the test: Selectivity index, ratio of IC50 for recombinant human MAO-A to IC50 for recombinant human MAO-B.
Test [4] deals with T2, Cholinesterase (Homo sapiens, UniProt P06276). The test is described as follows: Inhibition of human serum BuChE using acetylcholine iodide as substrate incubated for 15 mins by Ellman's method. Background: Ellman's reagent forms a yellow product with free thiols.
For test [5], the target named is Acetylcholinesterase (Electrophorus electricus, UniProt O42275). Nature of the test: Inhibition of Electrophorus electricus AChE using acetylcholine iodide as substrate incubated for 15 mins by Ellman's method.
The target in test [6] is T3, Amine oxidase [flavin-containing] B (Homo sapiens, UniProt P27338).
T3 sequence (P27338 whole entry): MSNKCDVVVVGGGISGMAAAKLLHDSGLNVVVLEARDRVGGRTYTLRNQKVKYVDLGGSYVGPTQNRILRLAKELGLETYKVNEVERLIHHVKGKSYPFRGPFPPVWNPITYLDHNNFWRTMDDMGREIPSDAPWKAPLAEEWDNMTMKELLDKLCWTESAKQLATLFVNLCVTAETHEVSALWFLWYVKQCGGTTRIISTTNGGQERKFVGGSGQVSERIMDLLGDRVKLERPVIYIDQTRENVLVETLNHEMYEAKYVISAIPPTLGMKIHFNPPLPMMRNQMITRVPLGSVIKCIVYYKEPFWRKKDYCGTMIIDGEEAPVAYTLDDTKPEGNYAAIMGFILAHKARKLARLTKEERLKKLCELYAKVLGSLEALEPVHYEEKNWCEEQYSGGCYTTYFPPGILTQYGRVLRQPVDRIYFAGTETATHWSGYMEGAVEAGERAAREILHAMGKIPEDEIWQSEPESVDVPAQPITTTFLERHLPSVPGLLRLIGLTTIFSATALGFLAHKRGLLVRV
The test is described as follows: Inhibition of recombinant human MAO-B.

In test [7] the target is Amyloid-beta precursor protein (Homo sapiens) (UniProt P05067). Nature of the test: Inhibition of self-induced Amyloid beta (1 to 42 residues) (unknown origin) aggregation at 25 uM measured after 24 hrs by thioflavin T-based fluorimetric assay relative to control.
Test [8] can be described thus: Selectivity index, ratio of IC50 for Electrophorus electricus AChE to IC50 for equine serum BuChE.
In test [9] the target is Cholinesterase (Equus caballus, UniProt P81908). The test is described as follows: Inhibition of equine serum BuChE using BTC as substrate after 15 mins by Ellman's method.
Test [10] addresses Acetylcholinesterase (Homo sapiens, UniProt P22303). Nature of the test: Inhibition of human erythrocytes AChE using acetylcholine iodide as substrate incubated for 15 mins by Ellman's method.
For test [11], the species on record is Danio rerio. Nature of the test: Antialzheimer activity in AlCl3-induced Zebrafish model of Alzheimer's disease assessed as motility distance at 8 uM (reference value: 5346 mm). The format is functional.
The species entered for test [12] is Danio rerio. The test is described as follows: Antialzheimer activity in AlCl3-induced Zebrafish model of Alzheimer's disease assessed as increase in motility distance at 8 uM relative to control. In kind it is functional.
The species entered for test [13] is Danio rerio. The test is described as follows: Antialzheimer activity in AlCl3-induced Zebrafish model of Alzheimer's disease assessed as increase in motility speed at 8 uM relative to control. The format is functional.
Test [14] is filed under the species Danio rerio. The test is described as follows: Antialzheimer activity in AlCl3-induced Zebrafish model of Alzheimer's disease assessed as change in motility speed at 8 uM (reference value: 1.08 mm/s). The format is functional.
The target in test [15] is T2, Cholinesterase. Nature of the test: Inhibition of human serum BuChE assessed as residual activity at 0.1 times IC50 using acetylcholine iodide as substrate measured after dilution by Ellman's method relative to control.
Another test has as its system Mus musculus. Nature of the test: Improvement in cognitive impairment in scopolamine-induced mouse model of amnesia assessed as increase in spontaneous alteration at 10 mg/kg by Y-maze test. The format is functional, organism-based.
The target in test [16] is Cholinesterase (Equus caballus) (UniProt P81908). The test is described as follows: Inhibition of equine serum BuChE at 25 uM using BTC as substrate after 15 mins by Ellman's method relative to control.

Calls of active or inactive are those of the source. No cut-off for these calls is given here.

T2 sequence (P06276 whole entry): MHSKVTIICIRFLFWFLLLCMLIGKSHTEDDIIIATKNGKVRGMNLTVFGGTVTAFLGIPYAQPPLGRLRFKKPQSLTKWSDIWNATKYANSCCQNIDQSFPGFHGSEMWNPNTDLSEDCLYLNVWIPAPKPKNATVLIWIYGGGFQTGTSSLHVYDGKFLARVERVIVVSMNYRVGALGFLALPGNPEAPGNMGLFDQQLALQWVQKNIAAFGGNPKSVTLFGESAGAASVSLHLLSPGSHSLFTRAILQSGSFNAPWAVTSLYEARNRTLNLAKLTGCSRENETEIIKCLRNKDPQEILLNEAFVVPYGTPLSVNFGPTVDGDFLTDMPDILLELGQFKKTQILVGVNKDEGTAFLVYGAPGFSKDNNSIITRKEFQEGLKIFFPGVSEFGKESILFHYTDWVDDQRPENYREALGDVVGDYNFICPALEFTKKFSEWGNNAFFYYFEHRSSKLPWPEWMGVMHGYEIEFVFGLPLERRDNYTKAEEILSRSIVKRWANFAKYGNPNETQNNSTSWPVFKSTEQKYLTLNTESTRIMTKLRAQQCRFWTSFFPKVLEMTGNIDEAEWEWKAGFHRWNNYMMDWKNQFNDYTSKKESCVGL
Chain of Acetylcholinesterase (Homo sapiens, UniProt P22303) (P22303 whole entry): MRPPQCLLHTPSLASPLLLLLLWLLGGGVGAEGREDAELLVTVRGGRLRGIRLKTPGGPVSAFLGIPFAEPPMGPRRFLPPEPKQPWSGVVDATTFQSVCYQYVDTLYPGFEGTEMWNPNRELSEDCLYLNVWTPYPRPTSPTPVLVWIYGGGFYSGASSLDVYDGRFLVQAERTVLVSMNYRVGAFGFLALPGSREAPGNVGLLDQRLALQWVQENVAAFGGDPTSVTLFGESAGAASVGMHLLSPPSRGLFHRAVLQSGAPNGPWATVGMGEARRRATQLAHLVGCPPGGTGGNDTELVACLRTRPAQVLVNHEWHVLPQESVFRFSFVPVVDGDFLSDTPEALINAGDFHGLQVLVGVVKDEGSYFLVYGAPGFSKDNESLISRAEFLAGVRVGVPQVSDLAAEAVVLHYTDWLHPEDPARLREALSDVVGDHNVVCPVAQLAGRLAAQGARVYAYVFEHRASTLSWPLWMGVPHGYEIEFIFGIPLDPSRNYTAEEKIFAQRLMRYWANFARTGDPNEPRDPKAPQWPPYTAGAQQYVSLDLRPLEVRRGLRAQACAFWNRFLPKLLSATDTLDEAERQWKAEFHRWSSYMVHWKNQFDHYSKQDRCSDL
Chain of Amyloid-beta precursor protein (Homo sapiens) (P05067 whole entry, the tested form may be a part): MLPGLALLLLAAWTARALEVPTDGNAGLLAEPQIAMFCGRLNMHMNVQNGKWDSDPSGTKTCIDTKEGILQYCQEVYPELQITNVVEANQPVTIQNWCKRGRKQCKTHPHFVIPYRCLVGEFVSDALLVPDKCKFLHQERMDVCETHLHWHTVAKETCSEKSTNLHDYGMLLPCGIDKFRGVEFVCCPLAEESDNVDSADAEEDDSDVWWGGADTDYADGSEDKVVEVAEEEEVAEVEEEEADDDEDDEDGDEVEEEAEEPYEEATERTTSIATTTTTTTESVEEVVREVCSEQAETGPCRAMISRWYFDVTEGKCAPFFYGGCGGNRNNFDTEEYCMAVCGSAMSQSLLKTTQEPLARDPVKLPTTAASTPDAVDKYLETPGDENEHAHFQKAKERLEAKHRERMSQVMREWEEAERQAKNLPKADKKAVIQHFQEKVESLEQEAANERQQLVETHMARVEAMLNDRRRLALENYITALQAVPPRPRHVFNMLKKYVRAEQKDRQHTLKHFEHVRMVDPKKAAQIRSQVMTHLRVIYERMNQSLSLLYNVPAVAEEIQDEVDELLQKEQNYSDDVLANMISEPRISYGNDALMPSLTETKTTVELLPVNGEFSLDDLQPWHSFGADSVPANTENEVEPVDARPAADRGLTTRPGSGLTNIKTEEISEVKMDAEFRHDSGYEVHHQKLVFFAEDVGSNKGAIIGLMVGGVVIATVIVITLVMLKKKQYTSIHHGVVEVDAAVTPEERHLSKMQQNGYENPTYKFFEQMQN
Chain of Acetylcholinesterase (Electrophorus electricus, UniProt O42275) (O42275 whole entry): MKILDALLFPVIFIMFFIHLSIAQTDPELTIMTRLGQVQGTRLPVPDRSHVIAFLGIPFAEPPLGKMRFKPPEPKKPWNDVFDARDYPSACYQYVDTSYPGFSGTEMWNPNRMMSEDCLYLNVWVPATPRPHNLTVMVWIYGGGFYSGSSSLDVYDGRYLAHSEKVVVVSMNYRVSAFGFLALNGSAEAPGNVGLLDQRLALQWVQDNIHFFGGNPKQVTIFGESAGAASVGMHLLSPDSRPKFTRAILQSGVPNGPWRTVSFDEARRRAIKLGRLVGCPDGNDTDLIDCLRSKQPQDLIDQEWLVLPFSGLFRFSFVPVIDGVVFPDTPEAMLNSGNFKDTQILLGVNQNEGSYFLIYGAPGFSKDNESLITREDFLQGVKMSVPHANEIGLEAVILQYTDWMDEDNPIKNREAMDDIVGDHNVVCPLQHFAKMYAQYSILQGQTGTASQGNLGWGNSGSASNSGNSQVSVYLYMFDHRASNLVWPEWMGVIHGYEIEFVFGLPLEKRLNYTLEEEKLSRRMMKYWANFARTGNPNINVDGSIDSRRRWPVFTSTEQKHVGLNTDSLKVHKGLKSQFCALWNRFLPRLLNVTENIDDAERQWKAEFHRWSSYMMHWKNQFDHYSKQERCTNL
Chain of Cholinesterase (Equus caballus) (P81908 whole entry): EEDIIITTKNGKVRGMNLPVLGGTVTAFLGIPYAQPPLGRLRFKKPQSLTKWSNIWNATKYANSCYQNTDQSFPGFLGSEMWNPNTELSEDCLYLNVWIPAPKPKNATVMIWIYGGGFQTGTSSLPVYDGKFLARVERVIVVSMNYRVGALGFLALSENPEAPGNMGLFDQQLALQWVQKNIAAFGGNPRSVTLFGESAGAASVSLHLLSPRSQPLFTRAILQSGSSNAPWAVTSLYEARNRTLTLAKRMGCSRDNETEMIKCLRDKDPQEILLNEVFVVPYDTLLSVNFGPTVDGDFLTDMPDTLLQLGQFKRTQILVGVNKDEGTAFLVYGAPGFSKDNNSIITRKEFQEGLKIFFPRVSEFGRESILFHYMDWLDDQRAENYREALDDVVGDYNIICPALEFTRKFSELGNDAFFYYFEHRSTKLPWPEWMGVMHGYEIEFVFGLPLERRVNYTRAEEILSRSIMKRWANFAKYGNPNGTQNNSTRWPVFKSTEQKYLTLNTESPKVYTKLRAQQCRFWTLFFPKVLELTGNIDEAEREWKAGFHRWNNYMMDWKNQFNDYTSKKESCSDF
Chain of Cholinesterase (Equus caballus, UniProt P81908) (P81908 whole entry): as above

In general, IC50 refers to the concentration at which inhibition is half-maximal. For orientation: inhibition means the change of the read-out against control, counted positive when it falls. Turning to `CCN(C)C(=O)Oc1ccc(/C=C/C(=O)N2CCc3ccccc3C2)cc1`, the figures for the Ratio IC50 (in the test filed under Homo sapiens [1]; in the test listed under Homo sapiens [3]; in test [8]) were 1.8, 11.7 and 4.7, respectively. For the same compound, the IC50 in test [2] was 97.3 µM; against Cholinesterase [4], 3.7 µM; against Acetylcholinesterase [5] it was 17.7 µM; in test [6] it was 8.3 µM; against Cholinesterase [9], 3.8 µM; against Acetylcholinesterase [10], 6.8 µM. In test [7], the inhibition is 52.9%.

Turning to `COc1cc2c(cc1OC)C(=O)C(CC1CCN(Cc3ccccc3)CC1)C2` (stereo unspecified) [DONEPEZIL], the results for the Activity in the test filed under Danio rerio [11], in the test filed under Danio rerio [14] and at Cholinesterase [15] were 6477 mm, “<=1.88 millimeter/sec” and 63.2%, respectively. Also, the Efficacy amounted to 57.9% in the test listed under Danio rerio [12] and 64.5% in the test filed under Danio rerio [13].

As to `CCN(CC)C(=O)Oc1ccc(/C=C/C(=O)N2CCC(Cc3ccccc3)CC2)cc1OC`, the Ratio IC50 in the test filed under Homo sapiens [1] amounted to 3.9; in the test filed under Homo sapiens [3] it was 1.5; in test [8], 9.1. The IC50 stood at 7.8 µM in [2]; 5.1 µM at Cholinesterase [4]; 25.6 µM on Acetylcholinesterase [5]; 5.13 µM in test [6]; 2.8 µM against Cholinesterase [9]; 19.7 µM at Acetylcholinesterase [10]. The compound further registered an inhibition in [7] of 49.7%.

Turning to `CC(=O)OCC[N+](C)(C)C`, the result in the test with Mus musculus was inactive.

For the compound `COc1cc(/C=C/C(=O)N2CCN(Cc3ccccc3)CC2)ccc1OC(=O)N(c1ccccc1)c1ccccc1`, the Ratio IC50 in the test listed under Homo sapiens [1] was determined as 1.3; in the test filed under Homo sapiens [3], 0.5. In addition, the IC50 in test [2] is 14.7 µM; against Cholinesterase [4], 22.3 µM; against Acetylcholinesterase [5], 89.8 µM; in [6] it was 31.8 µM; at Cholinesterase [9] it was greater than 100 µM; against Acetylcholinesterase [10], 28.7 µM. In test [16], the inhibition is 9.7%.

`CCN(C)C(=O)Oc1ccc(/C=C/C(=O)N2CCC(Cc3ccccc3)CC2)cc1OC`: the Ratio IC50 came to 2.7 in the test filed under Homo sapiens [1], 1.1 in the test filed under Homo sapiens [3] and 3.9 in test [8]. In addition, the IC50 in test [2] came to 7.9 µM; against Cholinesterase [4], 6.5 µM; against Acetylcholinesterase [5], 15.1 µM; in [6] it was 7.52 µM; against Cholinesterase [9], 3.9 µM; at Acetylcholinesterase [10] it was 17.3 µM. Further, in test [7], the inhibition was determined as 53.7%.

In the case of `CCN(C)C(=O)Oc1ccc(/C=C/C(=O)N2CCC(Cc3ccccc3)CC2)cc1`, the Ratio IC50 in the test filed under Homo sapiens [1] worked out at 4.8; in the test listed under Homo sapiens [3], 7.3; in test [8] it was 4.2. For the same compound, the IC50 in [2] was determined as 56.8 µM; against Cholinesterase [4] it was 5.6 µM; on Acetylcholinesterase [5], 22.1 µM; in test [6], 7.8 µM; against Cholinesterase [9] it was 5.3 µM; at Acetylcholinesterase [10], 27.1 µM. The same compound yielded an inhibition in test [7] of 48.1%.

For the compound `CCN(C)C(=O)Oc1ccc(/C=C/C(=O)N(CC)Cc2ccccc2)cc1OC`, the Ratio IC50 in the test filed under Homo sapiens [1] was found to be 5.4; in the test listed under Homo sapiens [3], 1.5; in [8] it was 13. The IC50 in [2] worked out at 14.1 µM; against Cholinesterase [4] it was 3.8 µM; against Acetylcholinesterase [5], 19.5 µM; in test [6], 9.5 µM; against Cholinesterase [9], 1.5 µM; against Acetylcholinesterase [10], 20.7 µM. The inhibition in test [7] stood at 50.7%.

Regarding `COc1cc(/C=C/C(=O)N2CCC(Cc3ccccc3)CC2)ccc1OC(=O)N(c1ccccc1)c1ccccc1`, the Ratio IC50 amounted to 0.9 in the test listed under Homo sapiens [1] and 2.6 in the test filed under Homo sapiens [3]. Further, the IC50 in [2] was 34.6 µM; against Cholinesterase [4], 36.7 µM; at Acetylcholinesterase [5], 88.3 µM; in [6], 13.3 µM; against Cholinesterase [9] it was greater than 100 µM; against Acetylcholinesterase [10], 32.1 µM. The same compound displayed an inhibition in [16] of 6.6%.

Turning to `CCN(C)C(=O)Oc1ccc(/C=C/C(=O)N2CCCCC2)cc1OC`, the figures for the Ratio IC50 (in the test filed under Homo sapiens [1]; in the test filed under Homo sapiens [3]; in test [8]) were 0.85, 1.8 and 0.78, respectively. The IC50 worked out at 29.6 µM in test [2]; 12.6 µM against Cholinesterase [4]; 15.3 µM at Acetylcholinesterase [5]; 16.3 µM in test [6]; 19.6 µM against Cholinesterase [9]; 10.7 µM on Acetylcholinesterase [10].

With `CCN(Cc1ccccc1)C(=O)/C=C/c1ccc(OC(=O)N(c2ccccc2)c2ccccc2)c(OC)c1`, the Ratio IC50 was determined as 1.1 in the test filed under Homo sapiens [1], 1.5 in the test listed under Homo sapiens [3] and 0.77 in test [8]. Besides, the concentration for half-maximal inhibition (IC50) in [2] turned out to be 24.6 µM; against Cholinesterase [4], 25.3 µM; against Acetylcholinesterase [5], 18.9 µM; in test [6], 15.9 µM; on Cholinesterase [9] it was 24.6 µM; against Acetylcholinesterase [10], 28.1 µM.

Consider `COc1cc(/C=C/C(=O)N2CCCCC2)ccc1OC(=O)N(c1ccccc1)c1ccccc1`, for which the Ratio IC50 in the test filed under Homo sapiens [1] amounted to 1.2; in the test filed under Homo sapiens [3], 2.1. In addition, the IC50 was found to be 46.2 µM in [2]; 22.9 µM against Cholinesterase [4]; 21.8 µM against Acetylcholinesterase [5]; 21.8 µM in test [6]; 98.5 µM on Cholinesterase [9]; 27.2 µM at Acetylcholinesterase [10]. Moreover, the inhibition in test [16] is 20%.

Regarding `COc1cc(/C=C/C(=O)N2CCC(Cc3ccccc3)CC2)ccc1OC(=O)N(C)C`, the Ratio IC50 is 2.2 in the test filed under Homo sapiens [1], 1.8 in the test listed under Homo sapiens [3] and 14.5 in [8]. In addition, the concentration for half-maximal inhibition (IC50) stood at 16.3 µM in test [2]; 7.6 µM against Cholinesterase [4]; 18.9 µM against Acetylcholinesterase [5]; 8.9 µM in [6]; 1.3 µM against Cholinesterase [9]; 16.6 µM at Acetylcholinesterase [10]. For the same compound, in test [7], the inhibition amounted to 56.6%.

The values are drawn from ChEMBL document CHEMBL4680246, “Design, synthesis and biological evaluation of novel O-carbamoyl ferulamide derivatives as multi-target-directed ligands for the treatment of Alzheimer's disease” (Eur J Med Chem, 2020).
